Where a name gives a salt, the structure may show the parent alone.
Experiments:
[1] = system: type 2 diabetes rat model (high-fat and high-sugar feed + streptozotocin); assay: Combined drug use experiment (HH003B with Empagliflozin): HbA1c in rat model; type: in vivo, Wistar rats; conditions: model rats
Source text: Wistar rats were bred adaptively for 1 week. The subjects were randomly divided into the normal Control group (10) and the modeling group (60) according to their body weight from the second week. The normal Control group (Control) was fed with basic feed, and the model group was fed with high-fat and high-sugar feed. […] On the 9th weekend, rats fasted overnight, measured FBG and insulin levels, and calculated the insulin index (ISI). The model would be successfully established if the fasting blood glucose (>) was 11.1 mmol/L and the ISI was decreased. The successfully modeled rats were randomly divided into Model group, Metformin hydrochloride group, HH003 group, and HH003B group, with 10 rats in each group. […] Fasting but gave water after the last dose, and then weighted the rats after 12 hours. Detected the content of fasting insulin (Insulin), separated the serum, detected the high-density lipoprotein (HDL), free fatty acid (FFA) and glycosylated hemoglobin (GHB). […] Empagliflozin group was given by gavage 1 mg/kg once a day. […] HbA1c was determined at the end of the experiment.

[2] = system: type 2 diabetes rat model (high-fat and high-sugar feed + streptozotocin); assay: Pharmacodynamic experiment: biochemical indexes of rat model after 4 weeks of administration; type: in vivo, Wistar rats; conditions: model rats
Source text: Wistar rats were bred adaptively for 1 week. The subjects were randomly divided into the normal Control group (10) and the modeling group (60) according to their body weight from the second week. The normal Control group (Control) was fed with basic feed, and the model group was fed with high-fat and high-sugar feed. […] On the 9th weekend, rats fasted overnight, measured FBG and insulin levels, and calculated the insulin index (ISI). The model would be successfully established if the fasting blood glucose (>) was 11.1 mmol/L and the ISI was decreased. The successfully modeled rats were randomly divided into Model group, Metformin hydrochloride group, HH003 group, and HH003B group, with 10 rats in each group. […] Fasting but gave water after the last dose, and then weighted the rats after 12 hours. Detected the content of fasting insulin (Insulin), separated the serum, detected the high-density lipoprotein (HDL), free fatty acid (FFA) and glycosylated hemoglobin (GHB).

[3] = 4 weeks, metformin hydrochloride 200 mg/kg daily gavage, HH003/HH003B 30% of feed (about 13 g/d/kg)

Compound	HbA1c (glycosylated hemoglobin) ([1]; 4 weeks, Empagliflozin 1 mg/kg gavage once a day, HH003B 15% of feed (about 7 g/d/kg), combination both) [mg/dL]	effect on glycosylated hemoglobin, in words ([1]; Empagliflozin 1 mg/kg, HH003B reduced dose (15% of feed))	effect on HDL level, in words ([2]; 4 weeks of administration)	effect on glycosylated hemoglobin GHB level, in words ([2]; 4 weeks of administration, versus Model and Control groups)	effect on the disease condition of type 2 diabetes, in words ([2]; 4 weeks, HH003/HH003B 30% of feed, metformin hydrochloride 200 mg/kg)	FFA (free fatty acid), serum [2, 3] [mmol/L]	GHB (glycosylated hemoglobin) [2, 3] [mmol/L]	HDL (high-density lipoprotein), serum [2, 3] [mmol/L]	Insulin (fasting insulin) ([2]; 4 weeks, metformin hydrochloride 200 mg/kg daily gavage, HH003/HH003B 30% of feed (about 13 g/d/kg), 12 h fasting, mean ± spread) [uIU/ml]
OC[C@H]1O[C@@H](c2ccc(Cl)c(Cc3ccc(O[C@H]4CCOC4)cc3)c2)[C@H](O)[C@@H](O)[C@@H]1O [Empagliflozin]	7.01 ± 0.17	no effect							
CN(C)C(=N)N=C(N)N [Metformin, metformin hydrochloride]			significantly increase HDL level	significantly reduce the GHB level of the rats but still significantly higher than that of the normal rats	only improve the disease condition of type 2 diabetes to a certain extent	0.56 ± 0.03	15.07 ± 0.85	0.74 ± 0.15	31.15 ± 6.28

Reference: patent US20200276258A1, “PHARMACEUTICAL COMPOSITION FOR CONTROLLING BLOOD SUGAR” (BEIJING HEBABIZ BIOTECHNOLOGY CO., Inc., priority 2017, published 2020)
